The values that follow come from patent US7169592B2, “Producing optically active amino compounds” (Kaneka Corporation, priority 1997, dated 2007).

Assay [1] has as its system purified enzyme protein (transaminase). In words: Reactivity of purified transaminase to carbonyl compounds with (R)-1-phenylethylamine as amino group donor. The class given is biochemical, Arthrobacter species KNK168. As to conditions: for Relative Activity: 25 mM carbonyl compound, 25 mM (R)-1-phenylethylamine, pH 8.5, 30° C., pyruvic acid = 100; for Reactivity as carbonyl compound (in words): (R)-1-phenylethylamine as amino group donor. The method, then:
Using the purified enzyme protein obtained in Example 9, reactivities to various carbonyl compounds using (R)-1-phenylethylamine as an amino group donor were evaluated. A 50 μl solution of the purified enzyme protein was added to 200 μl substrate solution [0.1 M Tris-HCl buffer (pH 8.5), 25 mM (R)-1-phenylethylamine, 0.1 mM pyridoxal phosphate, and 25 mM various carbonyl compounds], and the mixture was reacted at 30° C. for 1 to 3 hours in tube. The reaction tube was transferred into boiling water to stop the reaction, and thereafter, the reaction mixture was diluted five-folds with methanol. This diluted solution was analyzed by high-performance liquid chromatography using a fine pack C18-5 column and using methanol-water (20:80) as an eluent to quantitate acetophenone formed by the reaction.

Assay [2] has as its system Arthrobacter species KNK168 strain. In words: Amino group donors in whole-cell transamination of 1-(3,4-dimethoxyphenyl)-2-propanone. The class given is cell-based. The method, then:
The cultured cells were harvested by centrifugation, and the harvested cells were suspended in a reaction mixture (pH 8.5) containing 1% 1-(3,4-dimethoxyphenyl)-2-propanone, 0.1% Triton X-100, and 1% an amino group donor shown in Table 5. The mixture was reacted at 35° C. for 20 hours.

The subject of assay [3] is transaminase (intracellular enzyme). In words: Activity of the transaminase (intracellular enzyme) on typical substrates of ω-aminotransferases. It is filed as biochemical, Arthrobacter sp. KNK168.
Assay [4] has as its system Transaminase of Present Invention (purified enzyme). In words: Influence of reaction inhibitors on purified transaminase. As to conditions: inhibitor 1 mM; without addition = 100. It is filed as biochemical, Arthrobacter sp. KNK168. An excerpt: (§1) The differences with the ω-amino acid transaminase derived from Pseudomonas sp. F-1 (Agric. Biol. Chem., 42, 2363–2367 (1978), Agric. Biol. Chem., 43, 1043–1048 (1979), J. Biol. Chem., 258, 2260–2265 (1983)) which have been well studied among the ω-amino acid transaminases, and with the benzylamine transaminase of Okada et al. (Japanese Patent Laid-Open No. Hei 6-178685) are summarized and shown in Table 2. In a case of the transaminase reaction in the present invention, the data of the purified enzyme are used, and in cases of those by other two enzymes, the data of the purified enzymes which are disclosed in each of the literature publication and laid-open patent publication are used. Pyruvic acid is used as an amino group acceptor in all cases.

The test system is the same in assay [5]. In words: Reactivity of purified transaminase to amino compounds (amino group donors) with pyruvic acid as acceptor. The class given is biochemical, Arthrobacter sp. KNK168. The note with it: for Relative Activity: amino compound 40 mM in substrate solution, pyruvic acid acceptor, pH 8.3, 30° C., 1 hour, (R)-1-phenylethylamine = 100; for Reactivity as amino compound (in words): pyruvic acid as amino acceptor.
From the text: as §1
Using the purified enzyme protein obtained in Example 9, reactivities to various amino compounds when using pyruvic acid as an amino acceptor were evaluated. A 150 μl solution of the purified enzyme protein solution diluted ten-folds was added to a 150 μl substrate solution [0.1 M potassium phosphate buffer (pH 8.3), 40 mM pyruvic acid, 0.1 mM pyridoxal phosphate, and 40 mM various amino compounds]. The components were reacted at 30° C. for 1 hour. The reaction tube was transferred into boiling water to stop the reaction, and thereafter, a part of the reaction mixture was diluted five-folds. Ten μl 0.1 M boric acid buffer (pH 8.0) and a 20 μl ethanol solution of 80 mM 4-fluoro-7-nitro-2,1,3-benzoxadiazole (NBD-F) were added to the 10 μl above-mentioned diluted reaction mixture. The resulting mixture was reacted at 60° C. for 1 minute, and thereafter, the resulting mixture was ice-cooled, and 460 μl 5 mM HCl was added thereto. This reaction mixture was analyzed by high-performance liquid chromatography using a fine pack C18-5 column (manufactured by Nippon Bunko) I and using 0.1 M potassium phosphate buffer (pH 6.5) and CH3CN (90:10) as an eluent to detect formation of NBD-Alanine with an excitation wavelength of 470 nm and a detection wave of […]. The results thereof are shown in Table 8 in terms of relative activity in the case of using […] as a substrate.

Assay [6] deals with Arthrobacter species KNK168 strain. The assay can be described thus: Surfactant and fatty acid additives in whole-cell transamination. It is filed as cell-based. As to conditions: for (R)-DMA Formed: 30° C., pH 8.5, 20 hours; for Effect of additive on yield of reaction product (in words): whole cells. The method, then: The cells obtained by culturing the Arthrobacter species KNK168 strain in the R medium were suspended in a reaction mixture containing 2% 1-(3,4-dimethoxyphenyl)-2-propanone and 4% (RS)-1-phenylethylamine. The surfactants and fatty acids shown in Table 6 were added thereto, and the mixture was reacted at 30° C. at a pH of 8.5 for 20 hours.

Setting [7] is: 1% amino group donor, 1% 1-(3,4-dimethoxyphenyl)-2-propanone, 0.1% Triton X-100, pH 8.5, 35° C., 20 hours.
Where [8] appears, read: amino group acceptor 2-ketoglutaric acid, (R)-1-phenylethylamine/pyruvic acid = 100 (control).
[9] abbreviates: amino group acceptor pyruvic acid, (R)-1-phenylethylamine = 100 (control).
Where [10] appears, read: additive 0.1%, no addition 28.1.

Marks after values point to notes of the source that are not given here.

Turning to 2-Decane, the “Relative Activity” value in assay [1] is 3%. Turning to `CC(CN)c1ccccc1` (racemic) [(RS)-1-Amino-2-phenylpropane], the “(R)-DMA Formed” value in assay [2] (pH 8.5) turned out to be 1.8%. As to `CC(N)c1ccccc1` (racemic) [(RS)-1-Phenylmethylamine], the “(R)-DMA Formed” value in assay [2] (setting [7]) was found to be 3.1%.

In the case of `CC(N)CO` (racemic) [(RS)-2-Amino-1-propanol], in assay [2] (setting [7]), the “(R)-DMA Formed” value was 9.6%.

On to `NC(CO)c1ccccc1` (racemic) [(RS)-2-Amino-2-phenylethanol], for which the “(R)-DMA Formed” value in assay [2] (setting [7]) was 48.4%. On to `NC(CO)Cc1ccccc1` (racemic) [(RS)-2-Amino-3-phenylpropanol], for which the “(R)-DMA Formed” value in assay [2] (setting [7]) came to 22.7%. As for `CC(N)CCc1ccccc1` (racemic) [(RS)-2-Amino-4-phenylbutane], the “(R)-DMA Formed” value in assay [2] (setting [7]) was found to be 27.6%. On to `NC(=O)CC(N)C(=O)O` (racemic) [DL-Asparagine], for which the “Relative Activity” value in assay [3] (setting [8]) came out at 0%. As for `NC(=O)CCC(N)C(=O)O` (racemic) [DL-Glutamine], the “Relative Activity” value in assay [3] (setting [8]) amounted to 0%. As to `NCCCCC(N)C(=O)O` (racemic) [DL-Lysine], the “Relative Activity” value in assay [3] (setting [8]) was found to be 0%.

For `NCCCC(N)C(=O)O` (racemic) [DL-Ornithine], in assay [3] (setting [8]), the “Relative Activity” value is 0%. `NC1C=CC=C(C(=O)O)C1` (racemic) [Gabaculine]: the “Relative activity with inhibitor” value in assay [4] is on record as 24%.

For the compound `COc1ccc(CC(C)=O)cc1OC` [1-(3,4-Dimethoxyphenyl)-2-propanone], in assay [1], the “Relative Activity” value is recorded as 7%. For `COCC(C)=O` [1-Methoxy-2-propanone], in assay [1], the “Relative Activity” value was 16%. As for `CCCCCCC(C)N` (stereo not drawn) [1-Methylheptylamine], the “Relative Activity” value in assay [5] stood at 47%. In the case of `CCC(C)N` (stereo not drawn) [1-Methylpropylamine], the “Relative Activity” value in assay [5] turned out to be 1.2%.

As for `CCC(=O)Cc1ccccc1` [1-Phenyl-2-butanone], the “Relative Activity” value in assay [1] amounted to 1%.

On to `O=C1CCCc2ccccc21` [1-Tetralone], for which, in assay [1], the “Relative Activity” value worked out at 1%.

As for `NCCCC(N)C(=O)O` (stereo not drawn) [2,5-Diaminovalerate], the “Relative Activity” value in assay [3] (setting [8]) is recorded as 2%. For `CC(=O)c1ccco1` [2-Acetylfuran], the “Relative Activity” value in assay [1] came to 2%. Take `CC(=O)c1cnccn1` [2-Acetylpyrazine]: in assay [1], the “Relative Activity” value is 17%.

Consider `CC(=O)c1ccccn1` [2-Acetylpyridine], for which the “Relative Activity” value in assay [1] amounted to 19%.

For `CC(=O)c1nccs1` [2-Acetylthiazole], the “Relative Activity” value in assay [1] is given as 10%. `CC(=O)c1cccs1` [2-Acetylthiophene]: the “Relative Activity” value in assay [1] is given as 1%. On to `CCC(=O)C(=O)O` [2-Ketobutyric acid], for which the “Relative Activity” value in assay [1] is 7%.

On to `CCCCC(C)CN` (stereo not drawn) [2-Methylhexylamine], for which the “Relative Activity” value in assay [5] is 37%. Regarding `CC(=O)Oc1cccnc1` [3-Acetoxypyridine], the “Relative Activity” value in assay [1] was 1%. With `CC(=O)c1cccnc1` [3-Acetylpyridine], in assay [1], the “Relative Activity” value is 8%.

As to `CC(N)CCc1ccccc1` (stereo not drawn) [3-Aminophenylbutane], in assay [5], the “Relative Activity” value is listed as 84% and the “Reactivity as amino compound (in words)” value is listed as “favorable reactivities”.

`COc1ccc(CCC(C)=O)cc1` [4-(4-Methoxyphenyl)-2-butanone]: in assay [1], the “Relative Activity” value came to 7%. As for `CC(=O)c1ccncc1` [4-Acetylpyridine], the “Relative Activity” value in assay [1] is listed as 27%. `C[C@@H](N)c1cccc2ccccc12` [(R)-1-Naphthylethylamine]: the “(R)-DMA Formed” value in assay [2] (setting [7]) is recorded as 34.2%. As for `C[C@@H](N)c1ccccc1` [(R)-1-Phenylethylamine], the “Activity on the substance as amino group donor (in words)” value in assay [3] was “especially high activity”. For the same compound, the “Relative Activity” value in assay [3] (setting [9]) was 100* %; in assay [5] it was 100%. Take `N[C@@H](CO)c1ccccc1` [(R)-2-Phenylglycinol]: the “Relative Activity” value in assay [5] is 0%. As to `C[C@H](N)c1ccccc1` [(S)-1-Phenylethylamine], in assay [5], the “Relative Activity” value worked out at 0%. Take `N[C@H](CO)c1ccccc1` [(S)-2-Phenylglycinol]: in assay [5], the “Relative Activity” value came out at 180% and the “Reactivity as amino compound (in words)” value is “favorable reactivities”.

For `CC(=O)CCc1ccccc1` [Benzyl acetone], in assay [1], the “Relative Activity” value turned out to be 3%.

`CCCCCCCCCCCCCCCC[N+](C)(C)C.[Br-]` [Cetyl trimethyl ammonium bromide]: the “(R)-DMA Formed” value in assay [6] (setting [10]) amounted to 29.1%. For `CC(=O)C(C)=O` [Diacetyl], the “Relative Activity” value in assay [1] is 10%. As to `CCOC(=O)CC(C)=O` [Ethyl acetoacetate], the “Relative Activity” value in assay [1] worked out at 4%. With `CCOC(=O)CC(=O)c1ccccc1` [Ethyl benzoyl acetate], the “Relative Activity” value in assay [1] worked out at 2%. As for `CCOC(=O)C(C)=O` [Ethyl pyruvate], the “Relative Activity” value in assay [1] is 27%. Take `O=CC(=O)O` [Glyoxylic acid]: the “Relative Activity” value in assay [1] worked out at 4%. As for `N[C@H](CO)Cc1ccccc1` [L-Phenylalaninol], in assay [5], the “Relative Activity” value turned out to be 0.8%.

On to `CCCCC/C=C\C/C=C\CCCCCCCC(=O)O` [Linoleic Acid], for which, in assay [6] (additive 2.9%), the “(R)-DMA Formed” value was found to be 45.1%. Further, the “Effect of additive on yield of reaction product (in words)” value (from here on “Effect of additive”) in assay [6] is on record as “yield of the reaction product was increased”.

For the compound `CCCCCCCC/C=C\CCCCCCCC(=O)O` [Oleic Acid], the “(R)-DMA Formed” value in assay [6] (additive 2.9%) amounted to 44.9%. For the same compound, the “Effect of additive” value in assay [6] was “yield of the reaction product was increased”. In the case of `O=C(O)CC(=O)C(=O)O` [Oxalacetic acid], in assay [1], the “Relative Activity” value is recorded as 87% and the “Reactivity as carbonyl compound (in words)” value is “favorable reactivities”. For `CC(=O)COc1ccccc1` [Phenoxy-2-propanone], in that order: 83% and “favorable reactivities”.

Take `O=CCc1ccccc1` [Phenyl acetaldehyde]: the “Relative Activity” value in assay [1] worked out at 13%. As for `CC(=O)C(=O)O` [Pyruvic acid], the “Relative Activity” value in assay [1] turned out to be 100%. For the compound `CCCCCCCCCCCCOS(=O)(=O)[O-].[Na+]` [Sodium dodecyl sulfate], the “(R)-DMA Formed” value in assay [6] (setting [10]) came out at 45.3%; in assay [6] (additive 0.5%) it was 42.2%; in assay [6] (additive 1.0%), 46.3%; in assay [6] (additive 2.0%) it was 50.1%; in assay [6] (additive 3.0%), 51.9%; in assay [6] (additive 4.0%) it was 53.1%. The “Effect of additive” value in assay [6] is given as “yield of the reaction product was increased”. Consider `NCCS(=O)(=O)O` [Taurine], for which the “Relative Activity” value in assay [3] (setting [8]) came to 0%. Consider `NCCC(N)C(=O)O` (stereo not drawn) [α-2,4-Diaminobutyric acid], for which the “Relative Activity” value in assay [3] (setting [9]) is recorded as 0%.

With Triton X-100, the “(R)-DMA Formed” value stood at 31.6% in assay [6] (setting [10]) and 34.0% in assay [6] (additive 0.5%).
